Test results reported in the NIST ThermoML archive (doi:10.1021/je900632q).
Numbers after ± are expanded uncertainties.

Settings: 101.3 kPa, Liquid

SMILES: CCCCn1cc[n+](C)c1.N#CN=C=[N-] [1-butyl-3-methylimidazolium dicyanamide]
- mass density (278.15 K): 1075.8 ± 1.2 kg/m3
- viscosity (278.15 K): 82.07 ± 2.3 mPa·s
- mass density (283.15 K): 1072.6 ± 1.2 kg/m3
- viscosity (283.15 K): 62.54 ± 0.89 mPa·s
- mass density (288.15 K): 1069.4 ± 1.2 kg/m3
- viscosity (288.15 K): 48.93 ± 0.71 mPa·s
- mass density (293.15 K): 1066.2 ± 1.2 kg/m3
- viscosity (293.15 K): 39.14 ± 0.57 mPa·s
- mass density (298.15 K): 1063.1 ± 1.2 kg/m3
- viscosity (298.15 K): 31.8 ± 0.47 mPa·s
- mass density (303.15 K): 1059.9 ± 1.2 kg/m3
- viscosity (303.15 K): 26.29 ± 0.39 mPa·s
- mass density (308.15 K): 1056.8 ± 1.2 kg/m3
- viscosity (308.15 K): 21.79 ± 0.32 mPa·s
- mass density (313.15 K): 1053.7 ± 1.2 kg/m3
- viscosity (313.15 K): 18.5 ± 0.28 mPa·s
- mass density (318.15 K): 1050.6 ± 1.2 kg/m3
- viscosity (318.15 K): 15.88 ± 0.24 mPa·s
- mass density (323.15 K): 1047.5 ± 1.1 kg/m3
- viscosity (323.15 K): 13.78 ± 0.21 mPa·s
- mass density (328.15 K): 1044.4 ± 1.1 kg/m3
- viscosity (328.15 K): 12.06 ± 0.18 mPa·s
- mass density (333.15 K): 1041.3 ± 1.1 kg/m3
- viscosity (333.15 K): 10.65 ± 0.16 mPa·s
- mass density (338.15 K): 1038.2 ± 1.1 kg/m3
- viscosity (338.15 K): 9.475 ± 0.15 mPa·s
- mass density (343.15 K): 1035.1 ± 1.1 kg/m3
- viscosity (343.15 K): 8.485 ± 0.13 mPa·s
- mass density (348.15 K): 1032.1 ± 1.1 kg/m3
- viscosity (348.15 K): 7.643 ± 0.12 mPa·s
- mass density (353.15 K): 1029 ± 1.1 kg/m3
- viscosity (353.15 K): 6.923 ± 0.11 mPa·s
- mass density (358.15 K): 1025.8 ± 1.1 kg/m3
- viscosity (358.15 K): 6.304 ± 0.1 mPa·s
- mass density (363.15 K): 1022.7 ± 1.1 kg/m3
- viscosity (363.15 K): 5.77 ± 0.094 mPa·s
